# Earlier results, collected in patent publication US4818687A (priority 1985, dated 1989).
# Tested on: human liver cancer
compound,measurement,value
COc1cc2c(c3oc(=O)c4c(c13)CCC4=O)[C@@H]1C=CO[C@@H]1O2 [aflatoxin B1],association with human liver cancer,statistically associated with increased incidence of human liver cancer
